# Several values for one entry are separate records, joined by “and”; a condition that tells them apart may be missing. Equal entries are not always repeated.
# System: 598228-144-R-J1-PDC complex spheroids, viability
# Test: Anticancer human tumor 598228-144-R-J1-PDC patient-derived serous endometrial adenocarcinoma cell line growth inhibition [CLK]
# Details: for viability, T/C: stronger effect = lower value
# Outline: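 Patient-derived tumor cells grown as complex spheroids with HUVEC endothelial cells and mesenchymal stem cells, treated with drug combinations. Concentrations descend in half-log steps from near clinical Cmax, or from 10 microM if Cmax unknown.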
# [1] = curve of first compound, second compound 0.0316 µM
# [2] = curve of first compound, second compound 0.1 µM
# [3] = curve of first compound, second compound 0.316 µM
# [4] = curve of first compound, second compound 1 µM
# [5] = curve of first compound, second compound 3.16 µM
# [6] = curve of first compound, second compound 10 µM
# [7] = second compound 0.0316 µM, first compound 0.0316 µM
# [8] = second compound 0.0316 µM, first compound 0.1 µM
# [9] = second compound 0.0316 µM, first compound 0.316 µM
# [10] = second compound 0.0316 µM, first compound 1 µM
# [11] = second compound 0.0316 µM, first compound 3.16 µM
# [12] = second compound 0.0316 µM, first compound 10 µM
# [13] = second compound 0.1 µM, first compound 0.0316 µM
# [14] = second compound 0.1 µM, first compound 0.1 µM
# [15] = second compound 0.1 µM, first compound 0.316 µM
# [16] = second compound 0.1 µM, first compound 1 µM
# [17] = second compound 0.1 µM, first compound 3.16 µM
# [18] = second compound 0.1 µM, first compound 10 µM
# [19] = second compound 0.316 µM, first compound 0.0316 µM
# [20] = second compound 0.316 µM, first compound 0.1 µM
# [21] = second compound 0.316 µM, first compound 0.316 µM
# [22] = second compound 0.316 µM, first compound 1 µM
# [23] = second compound 0.316 µM, first compound 3.16 µM
# [24] = second compound 0.316 µM, first compound 10 µM
# [25] = second compound 1 µM, first compound 0.0316 µM
# [26] = second compound 1 µM, first compound 0.1 µM
# [27] = second compound 1 µM, first compound 0.316 µM
# [28] = second compound 1 µM, first compound 1 µM
# [29] = second compound 1 µM, first compound 3.16 µM
# [30] = second compound 1 µM, first compound 10 µM
# [31] = second compound 3.16 µM, first compound 0.0316 µM
# [32] = second compound 3.16 µM, first compound 0.1 µM
# [33] = second compound 3.16 µM, first compound 0.316 µM
# [34] = second compound 3.16 µM, first compound 1 µM
# [35] = second compound 3.16 µM, first compound 3.16 µM
# [36] = second compound 3.16 µM, first compound 10 µM
# [37] = second compound 10 µM, first compound 0.0316 µM
# [38] = second compound 10 µM, first compound 0.1 µM
# [39] = second compound 10 µM, first compound 0.316 µM
# [40] = second compound 10 µM, first compound 1 µM
# [41] = second compound 10 µM, first compound 3.16 µM
# [42] = second compound 10 µM, first compound 10 µM
# 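Further: spheroids exposed to compounds for seven days before readout.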
# 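Wherever viability, T/C is given: 100% = DMSO vehicle control wells.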
smiles,measurement,setting,value
O=c1[nH]cc(F)c(=O)[nH]1 + CNC(=O)c1ccc(Nc2nc(OC3CCCC3)c3c(-c4ccc5nc(C)oc5c4)c[nH]c3n2)c(OC)c1,IC50,[1],> 10000 nM
same,IC50,[2],> 10000 nM
same,IC50,[3],> 10000 nM
same,IC50,[4],> 10000 nM
same,IC50,[5],> 10000 nM
same,IC50,[6],> 10000 nM
same,"viability, T/C",[7],99.7%
same,"viability, T/C",[8],113%
same,"viability, T/C",[9],107%
same,"viability, T/C",[10],103%
same,"viability, T/C",[11],99.9%
same,"viability, T/C",[12],86.5%
same,"viability, T/C",[13],116%
same,"viability, T/C",[14],111%
same,"viability, T/C",[15],128%
same,"viability, T/C",[16],115%
same,"viability, T/C",[17],101%
same,"viability, T/C",[18],76.6%
same,"viability, T/C",[19],108%
same,"viability, T/C",[20],106%
same,"viability, T/C",[21],110%
same,"viability, T/C",[22],112%
same,"viability, T/C",[23],96.2%
same,"viability, T/C",[24],90%
same,"viability, T/C",[25],102%
same,"viability, T/C",[26],99.7%
same,"viability, T/C",[27],94.5%
same,"viability, T/C",[28],101%
same,"viability, T/C",[29],93.4%
same,"viability, T/C",[30],83.6%
same,"viability, T/C",[31],95%
same,"viability, T/C",[32],97%
same,"viability, T/C",[33],97.1%
same,"viability, T/C",[34],83.1%
same,"viability, T/C",[35],94.5%
same,"viability, T/C",[36],77.3%
same,"viability, T/C",[37],87.8%
same,"viability, T/C",[38],86.6%
same,"viability, T/C",[39],89.8%
same,"viability, T/C",[40],88.5%
same,"viability, T/C",[41],77.8%
same,"viability, T/C",[42],65.2%
Nc1ccn(C2OC(CO)C(O)C2(F)F)c(=O)n1 (stereo not drawn),"viability, T/C",compound 0.0316 µM,32.7% and 37.1%
same,"viability, T/C",compound 0.1 µM,24.5% and 31.8%
same,"viability, T/C",compound 0.316 µM,20.6% and 26.5%
same,"viability, T/C",compound 1 µM,24.4% and 28%
same,"viability, T/C",compound 3.16 µM,21.4% and 36.8%
same,"viability, T/C",compound 10 µM,22% and 27.7%
same,IC50,curve of compound,< 31.6 nM
C#Cc1c(F)ccc2cc(O)cc(-c3ncc4c(N5CC6CCC(C5)N6)nc(OCC56CCCN5CC(F)C6)nc4c3F)c12 (stereo not drawn) + CN1CCN(c2cc(C(=O)Nc3cc4cc(-c5cnn(C)c5)ccc4cn3)ccn2)CC1,IC50,[1],> 10000 nM
same,IC50,[2],> 10000 nM
same,IC50,[3],< 31.6 nM
same,IC50,[4],< 31.6 nM
same,IC50,[5],< 31.6 nM
same,IC50,[6],< 31.6 nM
same,"viability, T/C",[7],132%
same,"viability, T/C",[8],124%
same,"viability, T/C",[9],125%
same,"viability, T/C",[10],135%
same,"viability, T/C",[11],117%
same,"viability, T/C",[12],124%
same,"viability, T/C",[13],133%
same,"viability, T/C",[14],157%
same,"viability, T/C",[15],136%
same,"viability, T/C",[16],124%
same,"viability, T/C",[17],125%
same,"viability, T/C",[18],121%
same,"viability, T/C",[19],17.1%
same,"viability, T/C",[20],13.9%
same,"viability, T/C",[21],16%
same,"viability, T/C",[22],19.5%
same,"viability, T/C",[23],17.8%
same,"viability, T/C",[24],16.2%
same,"viability, T/C",[25],1.68%
same,"viability, T/C",[26],1.68%
same,"viability, T/C",[27],2.02%
same,"viability, T/C",[28],1.73%
same,"viability, T/C",[29],1.51%
same,"viability, T/C",[30],1.49%
same,"viability, T/C",[31],1.98%
same,"viability, T/C",[32],5.99%
same,"viability, T/C",[33],2.15%
same,"viability, T/C",[34],1.76%
same,"viability, T/C",[35],1.24%
same,"viability, T/C",[36],3.29%
same,"viability, T/C",[37],1.05%
same,"viability, T/C",[38],2.3%
same,"viability, T/C",[39],0.88%
same,"viability, T/C",[40],0.94%
same,"viability, T/C",[41],1%
same,"viability, T/C",[42],0.39%
CC(Nc1ccc2c(c1)OCCn1cc(N3C(=O)OCC3C(F)F)nc1-2)C(N)=O (stereo not drawn),"viability, T/C",compound 0.0316 µM,82.3% and 77.2%
same,"viability, T/C",compound 0.1 µM,67.8% and 63.2%
same,"viability, T/C",compound 0.316 µM,48% and 46.3%
same,"viability, T/C",compound 1 µM,46.3% and 36.9%
same,"viability, T/C",compound 3.16 µM,33.6% and 29.7%
same,"viability, T/C",compound 10 µM,28.9% and 24%
same,IC50,curve of compound,418 nM and 264 nM

# From PubChem BioAssay AID2060614 (Molecular Pharmacology Branch, DTP, NCI, 2025)
